Laboratory results from patent publication US12371454B2, “Cyclic peptide compound having Kras inhibitory action” (priority 2019, dated 2025).
pIC50: −log10 of the molar value. Starred links: 1 amine or outer side, 2 acyl side, 3 side chain; linkers in the order of their positions; H or OH if unused. Positions of bridges follow the written chain, without caps; N, C: chain ends. Non-standard residues stand in square brackets, D forms with d. Residues, ends and D or L forms follow the SMILES beside them. *: point of attachment. hPhe(3-Cl-4-CF3) = N[C@@H](CCc1ccc(C(F)(F)F)c(Cl)c1)C(=O)O; hPhe(3-F,4-CF3) = N[C@@H](CCc1ccc(C(F)(F)F)c(F)c1)C(=O)O; NMePhe(4-CF3) = CN[C@@H](Cc1ccc(C(F)(F)F)cc1)C(=O)O; NMePhe(3-Br) = CN[C@@H](Cc1cccc(Br)c1)C(=O)O; NMePhe(4-Cl) = CN[C@@H](Cc1ccc(Cl)cc1)C(=O)O; NMePhe(3-Me) = CN[C@@H](Cc1cccc(C)c1)C(=O)O; NMePhe(4-Me) = CN[C@@H](Cc1ccc(C)cc1)C(=O)O; NMedβ3hAla = C[C@H](CC(=O)[*:2])N(C)[*:1]; NMeGly(cPent) = CN[C@H](C(=O)O)C1CCCC1; dαMeGly(allyl) = C=CC[C@@](C)(N)C(=O)O; NMeCha = CN[C@@H](CC1CCCCC1)C(=O)O; X2 = C=CC[C@](C)(N[*:1])C(=O)[*:2]; NMeChg = CN[C@H](C(=O)O)C1CCCCC1; Gly(cBu) = N[C@H](C(=O)O)C1CCC1; NMeD = CN[C@@H](CC(=O)O)C(=O)O; NMeL = CN[C@@H](CC(C)C)C(=O)O; NMeV = CN[C@H](C(=O)O)C(C)C; d(β3hA) = C[C@@H](N)CC(=O)O; NMeS = CN[C@@H](CO)C(=O)O; Pip = O=C(O)[C@@H]1CCCCN1; Ac6c = NC1(C(=O)O)CCCCC1; Morpholide = C1CN(*)CCO1; NMeA = CN[C@@H](C)C(=O)O; Piperidide = C1CCN(*)CC1; Pyrrolidide = C1CCN(*)C1; Ac5c = NC1(C(=O)O)CCCC1; Aze = O=C(O)[C@@H]1CCN1; Aib = CC(C)(N)C(=O)O; Isopentyl = CC(C)CC*; NEtG = CCNCC(=O)O; Sar = CNCC(=O)O

Experiments:
[1] = target: T1, Kras and SOS1 (biotin-tagged human Kras loaded with GDP, His-tagged human SOS1) (Homo sapiens, UniProt P01116, G12D); assay: Protein-protein interaction inhibition between Kras and SOS1 (KrasGl2D-SOS PPI) using AlphaScreen; type: binding; details: AlphaScreen; biotin-tagged human Kras loaded with GDP, His-tagged human SOS1; read-out: KRAS G12D-SOS PPI IC50
T1 construct: made in house; host or cells: E. coli (stated for Kras only)
How it was run: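 Binding between SOS1 and Kras is detected as bead-proximity luminescence: illuminate Ni-conjugated donors (680 nm), collect 520-620 nm emission from streptavidin-conjugated acceptors; Kras carries biotin and GDP loaded after purification, SOS1 carries a His tag.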

[2] = test system: Human pancreatic cancer cell line AsPC-1; assay: Measurement of AsPC-1 cell growth inhibition (AsPC-1 CGI); type: cell-based; details: 96 h
How it was run: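 AsPC-1 cells in 15% FBS RPMI-1640 were exposed to test compound for 96 hours at 37° C, with CellTiter-Glo as endpoint.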

T1 sequence (P01116 1-188 isoform P01116-2 G12D): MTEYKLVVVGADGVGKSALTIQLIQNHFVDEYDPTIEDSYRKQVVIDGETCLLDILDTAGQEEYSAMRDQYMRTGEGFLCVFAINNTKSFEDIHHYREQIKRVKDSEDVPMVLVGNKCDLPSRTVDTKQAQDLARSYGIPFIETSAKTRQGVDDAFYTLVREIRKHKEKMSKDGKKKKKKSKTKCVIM

Row | SMILES | pIC50 [1] | pIC50 [2]
1 | CC[C@H](C)[C@@H]1NC(=O)[C@H](CC(C)C)N(C)C(=O)C[C@@H](C(=O)N2CCCCC2)N(C)C(=O)[C@H](C(C)C)N(C)C(=O)C2(CCCC2)NC(=O)[C@@H]2CCCN2C(=O)[C@H](CCc2ccc(C(F)(F)F)c(Cl)c2)NC(=O)CN(C)C(=O)[C@H](Cc2cccc(Br)c2)N(C)C(=O)CN(C)C(=O)CN(C)C1=O [Compound 1643] ([NMeL]I[Sar][Sar][NMePhe(3-Br)][Sar][hPhe(3-Cl-4-CF3)]P[Ac5c][NMeV][NMeD]-Piperidide; lactam N-11) | 8.14 | 6.30 to 7.00
2 | CC[C@H](C)[C@@H]1NC(=O)[C@H](CC(C)C)N(C)C(=O)C[C@@H](C)N(C)C(=O)[C@H](C(C)C)N(C)C(=O)C2(CCCC2)NC(=O)[C@@H]2CCCN2C(=O)[C@H](CCc2ccc(C(F)(F)F)c(Cl)c2)NC(=O)CN(C)C(=O)[C@H](Cc2ccc(C(F)(F)F)cc2)N(C)C(=O)CN(C)C(=O)CN(C)C1=O [Compound 1617] (cyclo([Ac5c][NMeV][NMedβ3hAla][NMeL]I[Sar][Sar][NMePhe(4-CF3)][Sar][hPhe(3-Cl-4-CF3)]P)) | 8.57 | 7.00 to 7.30
3 | CC[C@H](C)[C@@H]1NC(=O)[C@H](CC(C)C)N(C)C(=O)C[C@@H](C(=O)N2CCCCC2)N(C)C(=O)[C@H](C2CCCCC2)N(C)C(=O)C2(CCCC2)NC(=O)[C@@H]2CCCN2C(=O)[C@H](CCc2ccc(C(F)(F)F)c(Cl)c2)NC(=O)CN(C)C(=O)[C@H](CC2CCCCC2)N(C)C(=O)CN(C)C(=O)CN(CC)C1=O [Compound 1255] ([NMeL]I[NEtG][Sar][NMeCha][Sar][hPhe(3-Cl-4-CF3)]P[Ac5c][NMeChg][NMeD]-Piperidide; lactam N-11) | 8.85 | 6.30 to 7.00
4 | CC[C@H](C)[C@@H]1NC(=O)[C@H](C)N(C)C(=O)C[C@@H](C(=O)N2CCCCC2)N(C)C(=O)[C@H](C2CCCCC2)N(C)C(=O)C2(CCCC2)NC(=O)[C@@H]2CCCN2C(=O)[C@H](CCc2ccc(C(F)(F)F)c(F)c2)NC(=O)CN(C)C(=O)[C@H](CC2CCCCC2)N(C)C(=O)CN(C)C(=O)CN(C)C1=O [Compound 491] ([NMeA]I[Sar][Sar][NMeCha][Sar][hPhe(3-F,4-CF3)]P[Ac5c][NMeChg][NMeD]-Piperidide; lactam N-11) | 9.46 | 6.30 to 7.00
5 | CC(C)C[C@H]1C(=O)N[C@@H](C2CCC2)C(=O)N(C)CC(=O)N(C)CC(=O)N(C)[C@@H](CC2CCCCC2)C(=O)N(C)CC(=O)N[C@@H](CCc2ccc(C(F)(F)F)c(Cl)c2)C(=O)N2CCC[C@H]2C(=O)NC2(CCCC2)C(=O)N(C)[C@@H](C(C)C)C(=O)N(C)[C@H](C(=O)N2CCCCC2)CC(=O)N1C [Compound 221] ([NMeL][Gly(cBu)][Sar][Sar][NMeCha][Sar][hPhe(3-Cl-4-CF3)]P[Ac5c][NMeV][NMeD]-Piperidide; lactam N-11) | 8.55 | 6.30 to 7.00
6 | C=CC[C@@]1(C)NC(=O)[C@@H]2CCCN2C(=O)[C@H](CCc2ccc(C(F)(F)F)c(Cl)c2)NC(=O)CN(C)C(=O)[C@H](CC2CCCCC2)N(C)C(=O)CN(C)C(=O)CN(C)C(=O)[C@H]([C@@H](C)CC)NC(=O)[C@H](CC(C)C)N(C)C(=O)C[C@@H](C(=O)N2CCCCC2)N(C)C(=O)[C@H](C(C)C)N(C)C1=O [Compound 287] ([NMeL]I[Sar][Sar][NMeCha][Sar][hPhe(3-Cl-4-CF3)]P[dαMeGly(allyl)][NMeV][NMeD]-Piperidide; lactam N-11) | 8.29 | 6.30 to 7.00
7 | CC[C@H](C)[C@@H]1NC(=O)[C@H](COCCC(C)C)N(C)C(=O)C[C@@H](C(=O)N2CCCCC2)N(C)C(=O)[C@H](C2CCCCC2)N(C)C(=O)C2(CCCC2)NC(=O)[C@@H]2CCCN2C(=O)[C@H](CCc2ccc(C(F)(F)F)c(Cl)c2)NC(=O)CN(C)C(=O)[C@H](CC2CCCCC2)N(C)C(=O)CN(C)C(=O)CN(C)C1=O [Compound 1115] ([NMeS](Isopentyl)I[Sar][Sar][NMeCha][Sar][hPhe(3-Cl-4-CF3)]P[Ac5c][NMeChg][NMeD]-Piperidide; lactam N-11) | 8.60 | 6.30 to 7.00
8 | CC[C@H](C)[C@@H]1NC(=O)[C@H](CC(C)C)N(C)C(=O)C[C@@H](C)NC(=O)[C@H](C2CCCC2)N(C)C(=O)C(C)(C)NC(=O)[C@@H]2CCCN2C(=O)[C@H](CCc2ccc(C(F)(F)F)c(Cl)c2)NC(=O)CN(C)C(=O)[C@H](Cc2ccc(C)cc2)N(C)C(=O)[C@@H]2CCN2C(=O)[C@H](C)N(C)C1=O [Compound 354] (cyclo([Aib][NMeGly(cPent)][d(β3hA)][NMeL]I[NMeA][Aze][NMePhe(4-Me)][Sar][hPhe(3-Cl-4-CF3)]P)) | 8.80 | 6.30 to 7.00
9 | CC[C@H](C)[C@@H]1NC(=O)[C@H](CC(C)C)N(C)C(=O)C[C@@H](C(=O)N2CCCCC2)N(C)C(=O)[C@H](C(C)C)N(C)C(=O)C2(CCCCC2)NC(=O)[C@@H]2CCCN2C(=O)[C@H](CCc2ccc(C(F)(F)F)c(Cl)c2)NC(=O)CN(C)C(=O)[C@H](CC2CCCCC2)N(C)C(=O)CN(C)C(=O)CN(C)C1=O [Compound 600] ([NMeL]I[Sar][Sar][NMeCha][Sar][hPhe(3-Cl-4-CF3)]P[Ac6c][NMeV][NMeD]-Piperidide; lactam N-11) | 8.35 | 6.30 to 7.00
10 | CC[C@H](C)[C@@H]1NC(=O)[C@H](CC(C)C)N(C)C(=O)C[C@@H](C(=O)N2CCCCC2)N(C)C(=O)[C@H](C(C)C)N(C)C(=O)C2(CCCC2)NC(=O)[C@@H]2CCCN2C(=O)[C@H](CCc2ccc(C(F)(F)F)c(Cl)c2)NC(=O)CN(C)C(=O)[C@H](CC2CCCCC2)N(C)C(=O)[C@@H]2CCN2C(=O)[C@@H]2CCCCN2C1=O [Compound 988] ([NMeL]I[Pip][Aze][NMeCha][Sar][hPhe(3-Cl-4-CF3)]P[Ac5c][NMeV][NMeD]-Piperidide; lactam N-11) | 7.92 | 6.30 to 7.00
11 | CC[C@H](C)[C@@H]1NC(=O)[C@H](CC(C)C)N(C)C(=O)C[C@@H](C(=O)N2CCCCC2)N(C)C(=O)[C@H](C(C)C)N(C)C(=O)C2(CCCC2)NC(=O)[C@@H]2CCCN2C(=O)[C@H](CCc2ccc(C(F)(F)F)c(Cl)c2)NC(=O)CN(C)C(=O)[C@H](Cc2cccc(C)c2)N(C)C(=O)CN(C)C(=O)CN(C)C1=O [Compound 1626] ([NMeL]I[Sar][Sar][NMePhe(3-Me)][Sar][hPhe(3-Cl-4-CF3)]P[Ac5c][NMeV][NMeD]-Piperidide; lactam N-11) | 8.36 | 6.30 to 7.00
12 | CC[C@H](C)[C@@H]1NC(=O)[C@H](CC(C)C)N(C)C(=O)C[C@@H](C(=O)N2CCOCC2)N(C)C(=O)[C@H](C2CCCCC2)N(C)C(=O)C2(CCCC2)NC(=O)[C@@H]2CCCN2C(=O)[C@H](CCc2ccc(C(F)(F)F)c(F)c2)NC(=O)CN(C)C(=O)[C@H](CC2CCCCC2)N(C)C(=O)CN(C)C(=O)CN(C)C1=O [Compound 1965] ([NMeL]I[Sar][Sar][NMeCha][Sar][hPhe(3-F,4-CF3)]P[Ac5c][NMeChg][NMeD]-Morpholide; lactam N-11) | 9.26 | 7.00 to 7.30
13 | CC[C@H](C)[C@@H]1NC(=O)[C@H](CC(C)C)N(C)C(=O)C[C@@H](C(=O)N2CCCC2)N(C)C(=O)[C@H](C2CCCCC2)N(C)C(=O)C2(CCCC2)NC(=O)[C@@H]2CCCN2C(=O)[C@H](CCc2ccc(C(F)(F)F)c(Cl)c2)NC(=O)CN(C)C(=O)[C@H](Cc2ccc(C)cc2)N(C)C(=O)CN(C)C(=O)CN(C)C1=O [Compound 1658] ([NMeL]I[Sar][Sar][NMePhe(4-Me)][Sar][hPhe(3-Cl-4-CF3)]P[Ac5c][NMeChg][NMeD]-Pyrrolidide; lactam N-11) | 9.26 | 7.30 to 7.70
14 | CC[C@H](C)[C@@H]1NC(=O)[C@H](CC(C)C)N(C)C(=O)C[C@@H](C(=O)N2CCCC2)N(C)C(=O)[C@H](C2CCCCC2)N(C)C(=O)C2(CCCC2)NC(=O)[C@@H]2CCCN2C(=O)[C@H](CCc2ccc(C(F)(F)F)c(Cl)c2)NC(=O)CN(C)C(=O)[C@H](CC2CCCCC2)N(C)C(=O)CN(C)C(=O)CN(C)C1=O [Compound 1757] ([NMeL]I[Sar][Sar][NMeCha][Sar][hPhe(3-Cl-4-CF3)]P[Ac5c][NMeChg][NMeD]-Pyrrolidide; lactam N-11) | 9.37 | 7.30 to 7.70
15 | CC[C@H](C)[C@@H]1NC(=O)[C@H](CC(C)C)N(C)C(=O)C[C@@H](C)NC(=O)[C@H](C2CCCC2)N(C)C(=O)C2(CCCC2)NC(=O)[C@@H]2CCCN2C(=O)[C@H](CCc2ccc(C(F)(F)F)c(Cl)c2)NC(=O)CN(C)C(=O)[C@H](CC2CCCCC2)N(C)C(=O)CN(C)C(=O)CN(C)C1=O [Compound 122] (cyclo([Ac5c][NMeGly(cPent)][d(β3hA)][NMeL]I[Sar][Sar][NMeCha][Sar][hPhe(3-Cl-4-CF3)]P)) | 8.07 | 6.30 to 7.00
16 | CC[C@H](C)[C@@H]1NC(=O)[C@H](CC(C)C)N(C)C(=O)C[C@@H](C(=O)N2CCCCC2)N(C)C(=O)[C@H](C(C)C)N(C)C(=O)C2(CCCC2)NC(=O)[C@@H]2CCCN2C(=O)[C@H](CCc2ccc(C(F)(F)F)c(F)c2)NC(=O)CN(C)C(=O)[C@H](Cc2ccc(Cl)cc2)N(C)C(=O)CN(C)C(=O)CN(C)C1=O [Compound 229] ([NMeL]I[Sar][Sar][NMePhe(4-Cl)][Sar][hPhe(3-F,4-CF3)]P[Ac5c][NMeV][NMeD]-Piperidide; lactam N-11) | 8.17 | 6.30 to 7.00
17 | C=CC[C@]1(C)NC(=O)[C@@H]2CCCN2C(=O)[C@H](CCc2ccc(C(F)(F)F)c(Cl)c2)NC(=O)CN(C)C(=O)[C@H](CC2CCCCC2)N(C)C(=O)CN(C)C(=O)CN(C)C(=O)[C@H]([C@@H](C)CC)NC(=O)[C@H](CC(C)C)N(C)C(=O)C[C@@H](C)N(C)C(=O)[C@H](C(C)C)N(C)C1=O [Compound 644] (cyclo(I[Sar][Sar][NMeCha][Sar][hPhe(3-Cl-4-CF3)]P[X2][NMeV][NMedβ3hAla][NMeL])) | 7.77 | 6.30 to 7.00
